This note sets out measurements from patent publication US20130295199A1, “Composition Comprising OPC and Omega-3 for Preventing and/or Inhibiting the Development of Diabetic Retinopathy” (VISIOTACT PHARMA, priority 2011, published 2013).

Assay [1] concerns Type-1 streptozotocin-induced diabetic Sprague-Dawley rats. Nature of the assay: Streptozotocin-induced diabetic rat model: body weight, blood glucose, glycated hemoglobin. It is filed as in vivo. To be noted: STZ-induced diabetic Sprague-Dawley rats, after 90 days of treatment, n=20/group, mean +/- SEM. As for the experimental part: (§1) Sprague-Dawley rats (Harlan), weighing 75-100 g, were assigned to one of eight subgroups, based on non-diabetic, untreated diabetic and treated diabetic groups as indicated here-under. Sprague-Dawley rats were housed in a constant environment (room temperature (22.0±1.5)° C., room humidity (55±5) %) with a normal light-dark cycle (12-hour light, 12-hour dark). Diabetes was induced by intraperitoneal streptozotocin injection (75 mg/kg STZ, 10 mM citrate buffer, pH 4.5). Non-diabetic control animals received an equivalent dose of vehicle (citrate buffer at pH 4.6).
To analyse the effect of the composition of the invention, animals are fed as followed:
Diabetic and non-diabetic groups were examined biweekly to follow blood glucose and the body weight was recorded. 50 μL of whole blood was collected in potassium-EDTA tubes (Becton Dickinson) for subsequent analysis of glycated hemoglobin (GHb).

Assay [2] concerns retinal acellular capillaries. Nature of the assay: Quantitation of acellular capillaries in retina of diabetic animals. It is filed as in vivo, rat. The note with it: FIG. 5, result in words. On the procedure:
as §1
Evaluation of the retinal vasculature is done following adenosine diphosphatase (ADPase) activity in whole embedded retina. After overnight fixation in 2% PFA in 0.1 M cacodylate buffer at 4° C., an incision was made 2 mm posterior to the ora serrata, and the anterior segment of the eye was removed. […] The ADPase-incubated retina was washed in 0.1 M cacodylate buffer with 5% sucrose. […] Retinal microvascular density was quantified using Image J software.
After TUNEL-positive cells were counted, coverslips were soaked off, and the retinal vasculature then was stained with hematoxylin-periodic acid-Schiff. Acellular capillaries were counted in four to seven field areas in the mid retina. […] Although counting the ghosts, at least 1000 capillary cells (endothelial cells and pericytes) were counted in five mid-retinal field areas. […]

In assay [3] the test system is advanced glycation end product (AGE), retinal carboxymethyl-lysine. Nature of the assay: Retinal carboxymethyl-lysine measurement (AGE-product quantification), ELISA. It is filed as in vivo, rat. To be noted: STZ-induced diabetic Sprague-Dawley rats, after 90 days of treatment, n=20/group, mean +/- SEM. As for the experimental part: as §1
Retinal samples were exposed to ultrasonic disruption in RIPA buffer. After tissue debris suppression by centrifugation, protein level of samples was measured using bicinchoninic acid (BCA) protein assay kit (Pierce). Sample (concentration: 50 μg/mL) or advanced glycation end product (AGE)-BSA standard (0 to 200 μM) diluted in 0.05% Tween 20 and 0.2% BSA in 75 mM PBS were placed in duplicate into 96-wells plate (Nunc C96 Maxisorp; eBioscience) coated with solid-phase antigen (1 μg/mL AGE-BSA). Anti-CML rabbit polyclonal antibody was added for 2 hours at room temperature and then washed in 0.2 mM KH2PO4, 1.4 mM K2HPO4, 3 mM NaCl, 0.45 μM sorbic acid potassium, and 0.01% Tween-20 buffer. […] Absorbance was measured at 450 nm on a microplate reader (Biorad).
(An ELISA detects its analyte on a solid surface through an enzyme-linked reagent.)

Regarding docosahexaneoic acid (DHA) [Group G2], in assay [1], the Body weight is 220 ± 10 g, the “GHb (glycated hemoglobin)” value is given as 5.85 +/− 0.03% and the Glucose was 525 ± 10 mg/dL. Besides, the “Capillary degeneration (degenerated acellular capillaries)” value in assay [2] is reported as “significantly inhibited”. Also, the “AGE (advanced glycation end product)” value in assay [3] is on record as 0.026 +/− 0.004 AU/mg.
